From patent publication US20220133662A1, “ORAL DRUG, ADJUVANT CANCER THERAPY, AND PET THERAPEUTIC DIET” (priority 2019, published 2022)

Experiments:
[1] = test system: Hela cells; test: Survival rate of Hela cells (MTT), ketone donors alone or with cisplatin; assay type: cell-based; conditions: 1 mM ketone donor with 0.3-3 μM of cisplatin, versus untreated group
Experimental: (§1) COS7 cells, that are a renal cytoblastoma, were used. Subconfluent cells were spread on 24-well plates at a density of 40,000 cells/cm^2 and cultured in Dulbecco's Modified Eagle Medium (D-MEM) containing 10% of inactivated fetal bovine serum for one hour. Various concentrations of ketone bodies (HB) and ketone ester (KE) were added to the culture medium of COS7 cells and cultured for 24 hours. After 24 hours of culturing, the culture medium was removed, and COS7 cells were cultured for two hours in PBS with 1 mg/ml of a chromogenic reagent 3-(4,5-dimethylthiazol-2-yl)-2,5-diphenyl tetrazolium bromide (MTT, Wako Pure Chemical Corporation).
(§2) After the culturing, cell lysis solution (50% formamide, 20% sodium dodecyl sulfate) was added and left for 24 hours. Thereafter, the absorbance at 540 nm was measured using an absorbance measurement device (Biorad microplate reader), and the measured absorbance was used to calculate survival rates of COS7 cells.

[2] = test system: COS7 cells; test: Survival rate of COS7 cells (MTT), ketone donors alone or with cisplatin; assay type: cell-based; conditions: 1 mM ketone donor added with cisplatin, versus untreated group
Experimental: as §1, §2

[3] = cited from earlier work
[4] = in vivo; cited from earlier work
[5] = Ketone body concentration in the blood after a single ingestion in yogurt; assay type: in vivo; conditions: humans, 500 mg/kg of body weight in yogurt (200 g)
Experimental: PHB was extracted from OITC1261 by the method for purifying the powdered PHB shown in Example 2 (purity: 90%, weight-average molecular weight: 590,000). Ketone ester and PHB whose amounts were adjusted such that the intake thereof was 500 mg/kg of body weight were mixed uniformly in yogurt (200 g) and fed to humans. The ketone body concentration in the blood was measured using a ketone body value electrode (FS Precision ketone measurement electrode) of Precision Exceed (Abbott) every other hour. After ketone bodies were confirmed to be stable, plain yogurt was ingested.
The horizontal axis of the graph in FIG. 8 represents time. The vertical axis represents the ketone body concentration in the blood. Squares represent changes in the ketone body concentration in the blood over time in a group that ingested plain yogurt mixed with ketone ester. […]
The powdered PHB and ketone bodies whose amounts were adjusted such that the intake thereof was 500 mg, 300 mg, 100 mg, or 0 mg/kg of body weight were mixed uniformly in yogurt (200 g) and fed to humans. […] The ketone body concentration in the blood over time was measured using a ketone body value electrode (FS Precision ketone measurement electrode) of Precision Exceed (Abbott) every other hour. […]

Row | Structure (SMILES) | adjuvant effect on toxicity caused by cisplatin [1] | adjuvant effect on toxicity caused by cisplatin [2] | time in which ketone body concentration in the blood increases after ingestion ([3]; ketone bodies ingested) | share of ketone bodies transferred to the brain [4] | increase of the ketone body concentration in the blood ([3]; ketone ester ingested) | time after ingestion at which ketone body concentration in the blood returns to the original level [5]
1 | C[C@@H](O)CC(=O)O [ketone bodies, (R)-3-β-hydroxybutyric acid] | significantly promoted the toxic effects due to cisplatin | significantly promoted the toxic effect caused by cisplatin | within a few minutes | 20-30% | – | –
2 | C[C@@H](O)CCOC(=O)C[C@@H](C)O [ketone ester, 3-hydroxybutyl-3-hydroxybutyric acid] | – | – | – | – | several mM in a few minutes | about five
